From PubChem BioAssay (NCI)
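Five concentrations, 48 hours, 96-well plates. Here, GI50 denotes the concentration required for 50% inhibition of growth. TGI: total growth inhibition.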

What was measured:
Assay in all cases: DTP human tumour cell line panel, 48 h
NCI-H460 lung = tested on: NCI-H460 lung
U251 CNS = tested on: U251 CNS
T-47D breast = tested on: T-47D breast
SF-539 CNS = tested on: SF-539 CNS
NCI-H226 lung = tested on: NCI-H226 lung
786-0 renal = tested on: 786-0 renal
SR leukemia = tested on: SR leukemia
A498 renal = tested on: A498 renal
HOP-62 NSCLC = tested on: HOP-62 NSCLC
BT-549 breast = tested on: BT-549 breast
KM12 colon = tested on: KM12 colon
NCI-H23 lung = tested on: NCI-H23 lung
MOLT-4 leukemia = tested on: MOLT-4 leukemia
SK-MEL-2 melanoma = tested on: SK-MEL-2 melanoma
HL-60(TB) leukemia = tested on: HL-60(TB) leukemia
OVCAR-3 ovarian = tested on: OVCAR-3 ovarian
PC-3 prostate = tested on: PC-3 prostate
HT29 colon = tested on: HT29 colon
MALME-3M melanoma = tested on: MALME-3M melanoma
DU-145 prostate = tested on: DU-145 prostate
MDA-MB-435 = tested on: MDA-MB-435
HCT-116 colon = tested on: HCT-116 colon
K-562 leukemia = tested on: K-562 leukemia
OVCAR-4 ovarian = tested on: OVCAR-4 ovarian
UACC-62 melanoma = tested on: UACC-62 melanoma
OVCAR-8 ovarian = tested on: OVCAR-8 ovarian
UO-31 renal = tested on: UO-31 renal
SW-620 colon = tested on: SW-620 colon
SF-268 CNS = tested on: SF-268 CNS
SK-MEL-28 melanoma = tested on: SK-MEL-28 melanoma
SN12C renal = tested on: SN12C renal
SNB-75 CNS = tested on: SNB-75 CNS
RPMI-8226 leukemia = tested on: RPMI-8226 leukemia
MDA-MB-231 breast = tested on: MDA-MB-231 breast
ACHN renal = tested on: ACHN renal
CCRF-CEM leukemia = tested on: CCRF-CEM leukemia
A549 NSCLC = tested on: A549 NSCLC
HOP-92 NSCLC = tested on: HOP-92 NSCLC
LOX IMVI melanoma = tested on: LOX IMVI melanoma
NCI-H522 lung = tested on: NCI-H522 lung
HS 578T breast = tested on: HS 578T breast
M14 melanoma = tested on: M14 melanoma
EKVX NSCLC = tested on: EKVX NSCLC
HCT-15 colon = tested on: HCT-15 colon
SF-295 CNS = tested on: SF-295 CNS
SNB-19 CNS = tested on: SNB-19 CNS
UACC-257 melanoma = tested on: UACC-257 melanoma
TK-10 renal = tested on: TK-10 renal
COLO 205 colon = tested on: COLO 205 colon
CAKI-1 renal = tested on: CAKI-1 renal
SK-OV-3 ovarian = tested on: SK-OV-3 ovarian
RXF 393 renal = tested on: RXF 393 renal
HCC-2998 colon = tested on: HCC-2998 colon
NCI/ADR-RES ovarian = tested on: NCI/ADR-RES ovarian
IGROV1 ovarian = tested on: IGROV1 ovarian
SK-MEL-5 melanoma = tested on: SK-MEL-5 melanoma
MCF7 breast = tested on: MCF7 breast
OVCAR-5 ovarian = tested on: OVCAR-5 ovarian
MDA-N = tested on: MDA-N

CN(C)CCCNC(=O)c1cc(NC(=O)c2cc(NC(=O)CCCn3c4ccccc4c4ccccc43)cn2C)cn1C
TGI (NCI-H460 lung): > 94 µM
TGI (U251 CNS): > 62.2 µM
TGI (T-47D breast): 28 µM
TGI (SF-539 CNS): 62.6 µM
GI50 (NCI-H226 lung): 9.26 µM
TGI (NCI-H226 lung): 39 µM
TGI (786-0 renal): 28.7 µM
GI50 (SR leukemia): 2.24 µM
TGI (SR leukemia): 4.82 µM
TGI (A498 renal): 44.3 µM
TGI (HOP-62 NSCLC): 30.9 µM
TGI (BT-549 breast): 46.7 µM
TGI (KM12 colon): 43.9 µM
TGI (NCI-H23 lung): 39.3 µM
TGI (MOLT-4 leukemia): > 23.1 µM
TGI (SK-MEL-2 melanoma): > 79.9 µM
TGI (HL-60(TB) leukemia): > 72.4 µM
TGI (OVCAR-3 ovarian): > 72.5 µM
TGI (PC-3 prostate): > 56.3 µM
TGI (HT29 colon): > 100 µM
TGI (MALME-3M melanoma): > 49 µM
TGI (DU-145 prostate): 40.8 µM
TGI (MDA-MB-435): > 61.7 µM
TGI (HCT-116 colon): 13.8 µM
TGI (K-562 leukemia): 11.6 µM
TGI (OVCAR-4 ovarian): 35.5 µM
GI50 (UACC-62 melanoma): 7.28 µM
TGI (UACC-62 melanoma): 23 µM
TGI (OVCAR-8 ovarian): > 66.2 µM
TGI (UO-31 renal): > 58.2 µM
TGI (SW-620 colon): 42.8 µM
TGI (SF-268 CNS): 41.6 µM
TGI (SK-MEL-28 melanoma): 92 µM
TGI (SN12C renal): 33.2 µM
TGI (SNB-75 CNS): 39.1 µM
TGI (RPMI-8226 leukemia): 39.3 µM
GI50 (MDA-MB-231 breast): 4.45 µM
TGI (MDA-MB-231 breast): 20.9 µM
TGI (ACHN renal): > 65.9 µM
TGI (CCRF-CEM leukemia): > 100 µM
TGI (A549 NSCLC): > 67.7 µM
TGI (HOP-92 NSCLC): 40.1 µM
TGI (LOX IMVI melanoma): > 50.9 µM
TGI (NCI-H522 lung): > 90.6 µM
TGI (HS 578T breast): 49.7 µM
TGI (M14 melanoma): 12.3 µM
TGI (EKVX NSCLC): 46.2 µM
TGI (HCT-15 colon): > 75.5 µM
TGI (SF-295 CNS): > 69.7 µM
TGI (SNB-19 CNS): 28.3 µM
TGI (UACC-257 melanoma): 41.2 µM
TGI (TK-10 renal): 39.3 µM
TGI (COLO 205 colon): 7.88 µM
TGI (CAKI-1 renal): 43.5 µM
TGI (SK-OV-3 ovarian): 30.8 µM
TGI (RXF 393 renal): 37.8 µM
TGI (HCC-2998 colon): 18.7 µM
TGI (NCI/ADR-RES ovarian): 53.2 µM
TGI (IGROV1 ovarian): > 75.9 µM
TGI (SK-MEL-5 melanoma): 19.6 µM
TGI (MCF7 breast): 39 µM
TGI (OVCAR-5 ovarian): > 57.7 µM

O=C1C=CC=C/C1=C1\N=C(c2ccccc2OCC(=O)c2ccccc2)SS1
TGI (NCI-H460 lung): > 100 µM
TGI (U251 CNS): > 100 µM
TGI (SF-539 CNS): > 100 µM
TGI (NCI-H226 lung): > 100 µM
TGI (786-0 renal): > 100 µM
TGI (A498 renal): > 100 µM
TGI (HOP-62 NSCLC): > 100 µM
TGI (BT-549 breast): > 100 µM
TGI (KM12 colon): > 100 µM
TGI (NCI-H23 lung): > 100 µM
TGI (MOLT-4 leukemia): 47.2 µM
TGI (SK-MEL-2 melanoma): > 100 µM
TGI (HL-60(TB) leukemia): > 100 µM
TGI (OVCAR-3 ovarian): > 100 µM
TGI (HT29 colon): > 100 µM
TGI (MDA-N): > 100 µM
TGI (MALME-3M melanoma): > 100 µM
TGI (MDA-MB-435): > 100 µM
TGI (HCT-116 colon): > 100 µM
TGI (K-562 leukemia): > 100 µM
TGI (OVCAR-4 ovarian): > 100 µM
TGI (UACC-62 melanoma): > 100 µM
TGI (OVCAR-8 ovarian): > 100 µM
TGI (UO-31 renal): > 100 µM
TGI (SW-620 colon): > 100 µM
TGI (SF-268 CNS): > 100 µM
TGI (SK-MEL-28 melanoma): > 100 µM
TGI (SN12C renal): > 100 µM
TGI (SNB-75 CNS): 65.8 µM
TGI (RPMI-8226 leukemia): > 100 µM
TGI (MDA-MB-231 breast): > 100 µM
TGI (ACHN renal): > 100 µM
TGI (CCRF-CEM leukemia): > 100 µM
TGI (A549 NSCLC): > 100 µM
TGI (HOP-92 NSCLC): > 100 µM
TGI (LOX IMVI melanoma): > 100 µM
TGI (HS 578T breast): > 100 µM
TGI (M14 melanoma): > 100 µM
TGI (EKVX NSCLC): > 100 µM
TGI (HCT-15 colon): > 100 µM
TGI (SF-295 CNS): > 100 µM
TGI (SNB-19 CNS): > 100 µM
TGI (UACC-257 melanoma): > 100 µM
TGI (TK-10 renal): > 100 µM
TGI (CAKI-1 renal): > 100 µM
TGI (SK-OV-3 ovarian): > 100 µM
TGI (RXF 393 renal): > 100 µM
TGI (HCC-2998 colon): > 100 µM
TGI (NCI/ADR-RES ovarian): > 100 µM
TGI (IGROV1 ovarian): > 100 µM
TGI (MCF7 breast): > 100 µM
TGI (OVCAR-5 ovarian): > 100 µM
